The target in the first experiment is T1, PDK1 kinase (Homo sapiens, UniProt O15530).
T1 sequence (O15530 1-556): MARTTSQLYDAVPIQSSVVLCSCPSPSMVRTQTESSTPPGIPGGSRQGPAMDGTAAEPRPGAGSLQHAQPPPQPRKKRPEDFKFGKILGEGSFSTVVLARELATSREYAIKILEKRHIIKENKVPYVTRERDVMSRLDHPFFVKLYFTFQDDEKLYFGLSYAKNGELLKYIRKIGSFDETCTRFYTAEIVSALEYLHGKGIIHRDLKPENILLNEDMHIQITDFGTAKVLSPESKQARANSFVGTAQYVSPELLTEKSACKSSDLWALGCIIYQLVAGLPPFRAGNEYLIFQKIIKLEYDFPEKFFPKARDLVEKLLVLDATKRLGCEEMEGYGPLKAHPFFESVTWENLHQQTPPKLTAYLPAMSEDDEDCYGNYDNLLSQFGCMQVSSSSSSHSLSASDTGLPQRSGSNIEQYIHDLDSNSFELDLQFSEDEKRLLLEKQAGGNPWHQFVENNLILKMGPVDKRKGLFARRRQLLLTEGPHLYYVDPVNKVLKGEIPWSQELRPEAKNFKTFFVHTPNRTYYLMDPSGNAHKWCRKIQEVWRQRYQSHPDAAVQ
Kind of experiment: PDK1 Kinase Alpha Screen Assay. It is filed as biochemical. The settings on record: PDK1 Kinase Alpha Screen Assay; read-out: PDK1 IC50. As to the method: 1. PDK1 Kinase Alpha Screen Assay
Reagents/Concentrations: The PDK1-4 peptide substrate, biotin-[…]-NH2, was purchased from the Tufts University Core Facility. The final concentration of PDK1-4 peptide substrate was 50 nM The ATP substrate (Adenosine-5′-triphosphate) was purchased from Roche Diagnostics. The final concentration of ATP substrate was 10 uM. Phospho-(Ser/Thr) PKA substrate antibody was purchased from Cell Signaling Technology. The final concentration of antibody was 0.3 mg/ml. The Alpha Screen Protein A detection kit containing donor and acceptor beads was purchased from PerkinElmer Life Sciences. The final concentration of both donor and acceptor beads was 25 μg/ml. Alpha Screen was used for detection. The biotinylated-PDK1-4 peptide was phosphorylated by PDK1 kinase using the ATP substrate. The biotinylated-PDK1-4 peptide substrate was bound to the streptavidin coated donor bead. The antibody was bound to the protein A coated acceptor bead. The antibody bound to the phosphorylated form of the biotinylated PDK-1 peptide substrate, bringing the donor and acceptor beads into close proximity. Laser irradiation of the donor bead at 680 nm generated a flow of short-lived singlet oxygen molecules. When the donor and acceptor beads were in close proximity, the reactive oxygen generated by the irradiation of the donor beads initiated a luminescence/fluorescence cascade in the acceptor beads. This process led to a highly amplified signal with output in the 530-620 nm range. Assays were carried out in 50 mM Tris, pH=7.5, 10 mM MgCl2, 0.1% Bovine Serum Albumin, 0.01% Tween-20, 2 mM Dithiolthreitol, 2.5% Dimethyl Sulfoxide. Reactions were stopped by adding 50 mM Tris, pH=7.5, 90 mM EDTA, 0.1% Bovine Serum Albumin, 0.01% Tween-20.
Procedure: To 10 μl of PDK1-4 peptide, 0.5 μl of test compound in dimethyl sulfoxide is added. PDK1 kinase and ATP are mixed. 10 μl of the PDK1 kinase/ATP mix is added to start the reaction. The reaction is allowed to proceed for 3-18 hours. The reactions are stopped by adding 10 μl of the EDTA-containing stop buffer. Beads are mixed with antibody. 25 μl of the bead/antibody mix is added to the stopped reactions. Plates are incubated at room temperature overnight to allow for detection development before being read. The assay is run is a 384-well format. […]
One may read the IC50 as the concentration needed to halve the response being measured. Regarding `COc1ccccc1Oc1cccc2cnc(Nc3ccc(S(N)(=O)=O)cc3)nc12` [Compound 408, 4-(8-(2-methoxyphenoxy)quinazolin-2-ylamino)benzenesulfonamide], the IC50 was < 5 µM.
Consider `NC(=O)c1cccc(Oc2cccc3cnc(Nc4ccc(S(N)(=O)=O)cc4)nc23)c1` [Compound 411, 3-(2-(4-sulfamoylphenylamino)quinazolin-8-yloxy)benzamide], for which the IC50 was < 5 µM.
As to `NS(=O)(=O)c1ccc(Nc2ncc3cccc(Oc4ccnc(F)c4)c3n2)cc1` [Compound 412, 4-(8-(2-fluoropyridin-4-yloxy)quinazolin-2-ylamino)benzenesulfonamide], the IC50 is < 5 µM.
The same measure, in the same setting: for `NS(=O)(=O)c1ccc(Nc2ncc3ccc(Oc4ccnc(F)c4)cc3n2)cc1` [Compound 416, 4-(7-(2-fluoropyridin-4-yloxy)quinazolin-2-ylamino)benzenesulfonamide] the value was < 5 µM.

The same experiment, now with this note: read-out: PDK1 IC50.
`CCCCNS(=O)(=O)c1cccc(Nc2ncc3cccc(-c4cccc(NC(C)=O)c4)c3n2)c1` [Compound 87, N-{3-[2-(3-Butylsulfamoyl-phenylamino)-quinazolin-8-yl]-phenyl}-acetamide]: the IC50 was in the range of 5 to 10 µM.
As to `NC(=O)c1ccccc1-c1ccc2cnc(Nc3ccc(S(N)(=O)=O)cc3)nc2c1` [Compound 125, 2-[2-(4-Sulfamoyl-phenylamino)-quinazolin-7-yl]-benzamide], the IC50 was < 5 µM.
Consider `CC(=O)Nc1cccc(-c2ccc3cnc(Nc4ccc(S(N)(=O)=O)cc4)nc3c2)c1` [Compound 126, N-{3-[2-(4-Sulfamoyl-phenylamino)-quinazolin-7-yl]-phenyl}-acetamide], for which the IC50 was in the range of 5 to 10 µM.
Same read-out and setting: for `CS(=O)(=O)c1cccc(-c2ccc3cnc(Nc4ccc(S(N)(=O)=O)cc4)nc3c2)c1` [Compound 128, 4-[7-(3-Methanesulfonyl-phenyl)-quinazolin-2-ylamino]-benzenesulfonamlde] the value was < 5 µM.
Turning to `CS(=O)(=O)Nc1cccc(-c2ccc3cnc(Nc4ccc(S(N)(=O)=O)cc4)nc3c2)c1` [Compound 129, 4-[7-(3-Methanesulfonylamino-phenyl)-quinazolin-2-ylamino]-benzenesulfonamide], the IC50 lay within 10 to 25 µM.

The test system of a further experiment is PC-3 cells. The experiment can be described thus: Cell Proliferation Assay (Cell Titer Glo), PC-3 cell line. The settings on record: Homo sapiens, PC-3, Cell Proliferation Assay, PC3; read-out: CPEC50 PC3. It is filed as cell-based. As to the method: IV. Cell Proliferation Assay Protocol:
A2780, PC-3, or PC3MM cells were seeded at 1000 cells/well in 100 μL/well (10.000 cells/mL) growth media in 96-well plates. Cells were allowed to adhere to the bottom of plates for 3-5 hours in a 37° C. 5% CO2 incubator. Compounds were dissolved in DMSO and then transferred to the cell plates. The cells were incubated with the compounds for 3 days in a 37° C. 5% CO2 incubator. The growth medium containing the compounds was then removed from the cells and fresh medium was added, followed by 100 μL of Cell Titer Glo assay reagent (Promega). This mixture was shaken for 1 minute and then incubated without shaking for 10 minutes. Activity determinations for the compounds were made by detection on a Trilux Instrument.
V. Cell Proliferation Assay Protocol: PC-3 Cell Line
PC-3 cells were seeded at 1000 cells/well in 100 μL/well (10.000 cells/mL) along with growth media into black-walled, clear bottom 96-well plates. The cells were allowed to adhere to the bottom of the plate for 3-5 hours in a 37° C. 5% CO2 incubator.
Test compounds were diluted to 500× in DMSO. The DMSO solutions of six of the compounds were transferred to the cells in the 96 well round bottom plate, column 2, row B-F. A 1:3 serial dilution of each compound was carried out. The serial dilution comprised adding 20 μL of DMSO to the wells containing the compounds and doing a 1:3 dilution across the plate from columns 2-10. Column 11 contained only DMSO. The serial dilution was carried out using a BioMek 2000 protocol “CP Serial Dilution using 250 μL tips” or “Proliferation Compound” (if using 20 μL tips).
To a 96 deep well block, columns 2-11 rows B-F, was transferred 500 μL of growth medium. Using the FX protocol “HH_CellAssay—2 μL to 500 μL”, 2 μL of compound from each cell of the compound plate was transferred to the corresponding cell in the 96 deep well block containing 500 μL of growth medium. The instrument was programmed to dilute the compound in growth medium and then transfer 100 μL of that mixture to cell plates containing cells. The cell plates, to which test compounds had been added, were incubated for 3 days at 37° C. Following the incubation, the medium was removed and replaced with fresh medium. Cell Titer Glo (100 μL) was added to each well and the plate was shaken for 1 minute and then incubated without shaking for 10 minutes. The plates were then read using a Trilux instrument.
On the technique in general: Cellular ATP, detected with luciferase, serves as a proxy for viable cell number.
For the molecule `CNc1ncc2ccc(OC3CCN(C(C)C)CC3)cc2n1` [Compound 322, 7-(1-isopropylpiperidin-4-yloxy)-N-methylquinazolin-2-amine], the EC50 was 5 to 10 µM.
Consider `CNc1ncc2ccc(O)c(C3CCN(C(C)C)CC3)c2n1` [Compound 323, 8-(1-isopropylpiperidin-4-yl)-2-(methylamino)quinazolin-7-ol], for which the EC50 lay in the range of 5 to 10 µM.
As to `CC(C)N1CCC(Oc2ccc3cnc(Nc4nc5ccccc5s4)nc3c2)CC1` [Compound 324, N-(7-(1-isopropylpiperidin-4-yloxy)quinazolin-2-yl)benzo[d]thiazol-2-amine], the EC50 is < 5 µM.
Still for that read-out and setting: for `O=C(NC1CCNCC1)c1ccc(Nc2ncc3c(Br)ccc(OC4CCNCC4)c3n2)cc1` [Compound 370, 4-(5-bromo-8-(piperidin-4-yloxy)quinazolin-2-ylamino)-N-(piperidin-4-yl)benzamide] the value was 5 to 10 µM.
Same read-out and setting: for `COc1cc(C(=O)NC2CCN(C)CC2)ccc1Nc1ncc2c(Br)ccc(OC3CCNCC3)c2n1` [Compound 371, 4-(5-bromo-8-(piperidin-4-yloxy)quinazolin-2-ylamino)-3-methoxy-N-(1-methylpiperidinyl)benzamide] the value was 5 to 10 µM; for `Brc1ccc(OC2CCNCC2)c2nc(Nc3ccc(N4CCNCC4)cc3)ncc12` [Compound 372, 5-bromo-N-(4-(piperazin-1-yl)phenyl)-8-(piperidin-4-yloxy)quinazolin-2-amine], < 5 µM.
On the same count and under the same terms, in the case of `Cc1ccc(OC2CCNCC2)c2nc(Nc3ccc(N4CCNCC4)cc3)ncc12` [Compound 374, 5-methyl-N-(4-(piperazin-1-yl)phenyl)-8-(piperidin-4-yloxy)quinazolin-2-amine] it was 5 to 10 µM.
As to `Cc1ccc(OC2CCNCC2)c2nc(Nc3ccc(C(=O)NC4CCNCC4)cc3)ncc12` [Compound 376, 4-(5-methyl-8-(piperidin-4-yloxy)quinazolin-2-ylamino)-N-(piperidin-4-yl)benzamide], the EC50 is 5 to 10 µM.
On the same count and under the same terms, in the case of `CC(C)N1CCC(Oc2cccc3cnc(NC(=O)c4ccccc4)nc23)CC1` [Compound 541, N-(8-(1-isopropylpiperidin-4-yloxy)quinazolin-2-yl)benzamide] it was 5 to 10 µM.
As for `CC(C)N1CCC(Oc2cccc3cnc(NS(=O)(=O)c4ccccc4)nc23)CC1` [Compound 542, N-(8-(1-isopropylpiperidin-4-yloxy)quinazolin-2-yl)benzenesulfonamide], the EC50 was 5 to 10 µM.
Still for that read-out and setting: in the case of `CC(C)N1CCC(Nc2ncc3cccc(O)c3n2)CC1` [Compound 543, 2-(1-isopropylpiperidin-4-ylamino)quinazolin-8-ol] it was 5 to 10 µM.
Still for that read-out and setting: for `CC(=O)Nc1ncc2cccc(OC3CCN(C(C)C)CC3)c2n1` [Compound 544, N-(8-(1-isopropylpiperidin-4-yloxy)quinazolin-2-yl)acetamide] the value was 5 to 10 µM.
Still for that read-out and setting: for `NS(=O)(=O)c1ccc(Nc2ncc3cc(C(=O)Nc4cccc(NC(=O)c5ccccc5)c4)ccc3n2)cc1` [Compound 578, N-(3-benzamidophenyl)-2-(4-sulfamoylphenylamino)quinazoline-6-carboxamide] the value was < 5 µM; for `CC(C)NC(=O)c1ccc(Nc2ncc3ccc(Oc4ccccc4)cc3n2)cc1` [Compound 591, N-isopropyl-4-(7-phenoxyquinazolin-2-ylamino)benzamide], < 5 µM.

Still in this experiment, the particulars now being: Homo sapiens, PC-3, PC3 cells; read-out: CPEC50 PC3.
For `Nc1ncc(-c2ccc3cnc(Nc4ccc(S(N)(=O)=O)cc4)nc3c2OC2CCNCC2)cc1C(F)(F)F` [Compound 933, 4-(7-(6-amino-5-(trifluoromethyl)pyridin-3-yl)-8-(piperidin-4-yloxy)quinazolin-2-ylamino)benzenesulfonamide], the EC50 was < 5 µM.

(Values after US7932262B2 (Novartis AG, priority 2006, dated 2011).)
